Test results taken from patent US20070244202A1, “Ampk Activator” (KAO CORPORATION, priority 2004, published 2007).

Legend:
[1] = tested on: AMPK (AMP-activated protein kinase); test: AMPK activation evaluated by phosphorylation of AMPK α and β (Western blot) in mouse muscle cell line C2C12; type: cell-based
Procedure: (§1) The AMPK activation effect of resveratrol was evaluated on the basis of phosphorylation of AMPK α and β through the below-described method by use of a mouse muscle cell line (C2C12). Mouse muscle cells (C2C12) were seeded in a 25-cm^2 flask, and cultured in DMEM (+10% FBS, +antibacterial agent) at 37° C. for one to two days. The culture medium was removed when the cells reached confluent, and the cells were washed with PBS (−), followed by replacement with DMEM (2 mass % Horse serum) and further culturing for seven to eight days while the culture medium was exchanged every two or three days. Thereafter, the culture medium was removed, and the cells were washed with PBS (−), followed by replacement with DMEM (−FBS) and further culturing for one day. After the culture medium was removed, DMEM (−FBS) containing a predetermined amount of resveratrol was added, followed by culturing for 60 minutes. […] After the concentration of the supernatant protein was measured, the protein concentration was regulated to a constant level between samples. […] Thereafter, phospho-AMPK was detected by use of anti-phospho-AMPKα (Thr72) antibody (product of Cell Signaling) or anti-phospho-AMPKβ (Ser108) antibody (product of Cell Signaling) serving as a primary antibody, anti-rabbit-HRP antibody (product of Amersham) serving as a secondary antibody, and phototope-HRP Western Detection System (product of Cell Signaling) serving as a detection reagent. The intensity of the thus-detected band was converted into numerical data (pixels) through image analysis (EDAS 290 image analysis system: KODAK), and the degree of AMPK activation was calculated relative to the control (i.e., group containing no sample), which was taken as 100. […]

[2] = tested on: lipid metabolism activity (β-oxidation activity); test: Lipid metabolism activating effect: lipid degradation (β-oxidation) activity of liver and skeletal muscle after oral administration; type: in vivo, mouse
Procedure: Seven-week-old Balb/c male mice were divided into two groups, and saline (control) or resveratrol (200 mg/kg body weight) was orally administered for 10 consecutive days. Thereafter, the liver and skeletal muscle (gastrocnemius muscle+soleus muscle) were collected from each of the animals. Each of the thus-collected liver and skeletal muscle was homogenized in buffer (250 mM sucrose, 1 mM EDTA in 10 mM HEPES (pH 7.2)), and insoluble tissue residues were centrifugally separated, whereby a supernatant was obtained. The thus-obtained supernatant was subjected to measurement of protein content, and the protein content was regulated to a constant level between samples. Each of the resultant samples was employed for measurement of lipid metabolism activity (β-oxidation activity). The supernatant protein (100 μg) was reacted with 0.1 μCi [^14C]-palmitic acid at 37° C. for 20 minutes in 200 μL (final volume) of buffer (50 mM Tris-HCl (pH 8.0), 40 mM NaCl, 2 mM KCl, 2 mM MgCl2, 1 mM DTT, 5 mM ATP, 0.2 mM L-carnitine, 0.2 mM NAD, 0.06 mM FAD, 0.12 mM CoA, 3 mM α-cyclodextrin). The reaction was stopped with 200 μL of 0.6 N perchloric acid, and then unreacted [^14C]-palmitic acid was removed three times with hexane (1 mL). Lipid degradation activity was evaluated through measurement of the radioactivity of the aqueous layer.
Lipid degradation activity was calculated relative to that of the control, which was taken as 100. […] As is clear from the test results, resveratrol is effective for activation of lipid metabolism.

C57BL/6 male mice = test: Efficacy of resveratrol in mice fed a high-fat diet for 24 weeks (body, fat and liver weight, blood analysis); type: in vivo, mouse
Procedure: Seven-week-old C57BL/6 male mice (CLEA Japan, Inc.) were employed, and the animals were divided into three groups, each containing 10 to 15 animals. Twenty-four weeks after initiation of the test, body weight was measured, and blood was collected under anesthesia and non-fasting conditions for measurement of plasma glucose, cholesterol, insulin, and leptin. In addition, visceral fat weight (epididymal fat, retroperitoneal fat, and perirenal fat) and liver weight were measured. In Example 3, resveratrol manufactured by Cayman was employed. [table]

[3] = tested on: AMPK (AMP-activated protein kinase); test: AMPK activation evaluated by phosphorylation of AMPK α and β (Western blot) in mouse hepatocyte line Hepa 1-6; type: cell-based; conditions: Hepa 1-6 cells
Procedure: as §1, with “mouse hepatocyte” for “mouse muscle cell”, “line (Hepa 1-6).” for “line (C2C12).”, “Mouse hepatocyte” for “Mouse muscle”, “cells (Hepa 1-6)” for “cells (C2C12)”, “cells became subconfluent,” for “cells reached confluent, and the cells were washed with PBS (−), followed by replacement with DMEM (2 mass % Horse serum) and further culturing for seven to eight days while the culture medium was exchanged every two or three days. Thereafter, the culture medium was removed,”, “60 minutes. Thereafter, the culture medium was removed, and the cells were washed with PBS (−), followed by addition of 200 μL of a cytolytic solution (10 mmol/L Tris (pH 7.4), 50 mmol/L sodium chloride, 30 mmol/L sodium pyrophosphate, 0.5 mass % Triton X-100, protease inhibitor cocktail (SIGMA P2714), phosphatase inhibitor cocktail-2 (SIGMA P5726)). The resultant cell lysate was collected with a cell scraper. The thus-collected cell lysate was thoroughly homogenized by passing it through a syringe using a 23-G needle (3 times), and then the cell lysate was allowed to stand on ice for 30” for “60”

[4] = 0.2% resveratrol in high-fat diet vs high-fat diet, P<0.01
[5] = 0.2% resveratrol in high-fat diet vs high-fat diet, P<0.05

Oc1ccc(/C=C/c2cc(O)cc(O)c2)cc1 [Resveratrol, 3,4′,5-trihydroxy-trans-stilbene]
Phospho-AMPKα (degree of AMPK activation relative to control taken as 100) ([1]; C2C12 cells, resveratrol 150 μmol/L, 60 minutes, anti-phospho-AMPKα (Thr72) antibody, control = 100): 848
Phospho-AMPKβ (degree of AMPK activation relative to control taken as 100) ([1]; C2C12 cells, resveratrol 150 μmol/L, 60 minutes, anti-phospho-AMPKβ (Ser108) antibody, control = 100): 425
AMPK activation effect in muscle cells (in words) ([1]; summary of Table 2): potent AMPK activation effect
Lipid degradation activity (β-oxidation activity) of skeletal muscle relative to control taken as 100 ([2]; Balb/c male mice, resveratrol 200 mg/kg body weight orally for 10 consecutive days, gastrocnemius + soleus muscle homogenate, [14C]-palmitic acid, control = 100): 243
Lipid degradation activity (β-oxidation activity) of liver relative to control taken as 100 ([2]; Balb/c male mice, resveratrol 200 mg/kg body weight orally for 10 consecutive days, liver homogenate, [14C]-palmitic acid, control = 100): 323
Lipid degradation activity (β-oxidation activity) of the liver and skeletal muscle (in words) ([2]; resveratrol 200 mg/kg orally for 10 days vs saline control, liver p<0.001, muscle p<0.001): considerably increases
Blood insulin level, group 3 compared with group 2 (in words) (C57BL/6 male mice; 0.2% resveratrol in high-fat diet vs high-fat diet): lower than that in group 2
Body weight, group 3 compared with group 2 (in words) (C57BL/6 male mice; 0.2% resveratrol in high-fat diet vs high-fat diet, P<0.001): significantly lower than that in group 2
Blood leptin level, group 3 compared with group 2 (in words) (C57BL/6 male mice; [4]): significantly lower than that in group 2
Visceral fat weight, group 3 compared with group 2 (in words) (C57BL/6 male mice; [4]): significantly lower than that in group 2
Liver weight, group 3 compared with group 2 (in words) (C57BL/6 male mice; [5]): significantly lower than that in group 2
Total cholesterol level, group 3 compared with group 2 (in words) (C57BL/6 male mice; [5]): significantly lower than that in group 2
Blood glucose level, group 3 compared with group 2 (in words) (C57BL/6 male mice; 0.2% resveratrol in high-fat diet vs high-fat diet, P<0.1): lower than that in group 2
Visceral fat weight (C57BL/6 male mice; Group 3: high-fat diet with 0.2% resveratrol, epididymal, retroperitoneal and perirenal fat, group 1 0.88, group 2 2.17): 1.00 g
Liver weight (C57BL/6 male mice; Group 3: high-fat diet with 0.2% resveratrol, group 1 1.34, group 2 1.62): 1.39 g
Body weight (C57BL/6 male mice; Group 3: high-fat diet with 0.2% resveratrol, group 1 (low-fat) 32.2, group 2 (high-fat) 38.8): 32.1 g
Leptin (C57BL/6 male mice; Group 3: high-fat diet with 0.2% resveratrol, plasma, non-fasting, group 1 1.43, group 2 6.19): 1.79 ng/mL
Insulin (C57BL/6 male mice; Group 3: high-fat diet with 0.2% resveratrol, plasma, non-fasting, group 1 2.52, group 2 3.38): 2.03 ng/mL
Total cholesterol (C57BL/6 male mice; Group 3: high-fat diet with 0.2% resveratrol, plasma, non-fasting, group 1 58, group 2 76): 60 mg/dL
Glucose (C57BL/6 male mice; Group 3: high-fat diet with 0.2% resveratrol, plasma, non-fasting, group 1 133, group 2 191): 162 mg/dL
Phospho-AMPKα (degree of AMPK activation relative to control taken as 100) ([3]; resveratrol 150 μmol/L, 60 minutes, anti-phospho-AMPKα (Thr72) antibody, control = 100): 538
Phospho-AMPKβ (degree of AMPK activation relative to control taken as 100) ([3]; resveratrol 150 μmol/L, 60 minutes, anti-phospho-AMPKβ (Ser108) antibody, control = 100): 168
AMPK activation effect (in words) ([3]; summary of Table 1): potent AMPK activation effect
